{
  "source": "patent US7576105B2",
  "about": "“Benzyl substituted (piperidin-4-yl)aminobenzamido derivatives” (priority 2002, dated 2009)",
  "key": {"[1]": {"tested_on": "acetylcholine bromide-induced abdominal constriction", "conditions": "mouse, in vivo"}, "δ-opioid receptor": {"target": "T1, δ-opioid receptor (Rattus norvegicus, UniProt P33533)", "T1 construct": "from tissue; host or cells: rat forebrain homogenate (Wistar rat)", "T1 sequence (P33533 whole entry)": "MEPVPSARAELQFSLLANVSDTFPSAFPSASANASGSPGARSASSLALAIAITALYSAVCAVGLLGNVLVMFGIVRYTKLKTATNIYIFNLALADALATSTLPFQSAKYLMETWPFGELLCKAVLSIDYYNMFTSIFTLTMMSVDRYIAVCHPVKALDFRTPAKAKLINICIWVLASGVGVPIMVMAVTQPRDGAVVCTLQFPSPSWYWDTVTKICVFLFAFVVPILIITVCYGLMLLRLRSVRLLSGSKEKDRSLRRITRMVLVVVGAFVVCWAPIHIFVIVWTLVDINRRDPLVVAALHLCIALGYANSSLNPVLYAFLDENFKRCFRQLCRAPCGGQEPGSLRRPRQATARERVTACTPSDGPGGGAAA", "assay": "Rat brain δ-opioid receptor binding assay", "conditions": "rat forebrain particulate preparation, [3H]DPDPE, 25° C."}, "μ-opioid receptor": {"target": "T2, μ-opioid receptor (Rattus norvegicus, UniProt P33535)", "T2 construct": "from tissue; host or cells: rat forebrain homogenate (Wistar rat)", "T2 sequence (P33535 whole entry)": "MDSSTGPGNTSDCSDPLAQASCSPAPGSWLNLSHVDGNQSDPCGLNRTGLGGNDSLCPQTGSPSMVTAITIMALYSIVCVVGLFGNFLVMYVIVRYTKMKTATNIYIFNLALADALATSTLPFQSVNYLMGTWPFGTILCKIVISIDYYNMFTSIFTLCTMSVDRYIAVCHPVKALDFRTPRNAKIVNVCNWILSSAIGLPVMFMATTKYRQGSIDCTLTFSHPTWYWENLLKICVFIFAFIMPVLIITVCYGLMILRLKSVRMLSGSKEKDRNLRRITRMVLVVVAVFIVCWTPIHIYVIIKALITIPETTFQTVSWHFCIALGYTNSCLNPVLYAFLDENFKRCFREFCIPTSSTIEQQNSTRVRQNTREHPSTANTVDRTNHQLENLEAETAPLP", "assay": "Rat brain μ-opioid receptor binding assay", "conditions": "rat forebrain particulate preparation, [3H]DAMGO, 25° C."}},
  "data": [
    {"smiles": "C=CCN1CCC(N(Cc2ccccc2)c2ccc(C(=O)N(CC)CC)cc2)CC1", "note": "[Compound 9, N,N-Diethyl-4-[benzyl(1-allylpiperidin-4-yl)amino]benzamide]", "values": [
      {"measurement": "MAIT % Inhibition @150 μmol/kg", "setting": "[1]", "value": 84.6, "unit": "%"}
    ]},
    {"smiles": "CCN(CC)C(=O)c1ccc(N(Cc2ccccc2)C2CCN(C(C)C)CC2)cc1", "note": "[Compound 10, N,N-Diethyl-4-[benzyl(1-isopropylpiperidin-4-yl)amino]benzamide]", "values": [
      {"measurement": "Ki", "setting": "δ-opioid receptor", "value": 0.585, "unit": "µM"},
      {"measurement": "Ki", "setting": "μ-opioid receptor", "value": 3.79, "unit": "µM"}
    ]},
    {"smiles": "CCCN1CCC(N(Cc2ccccc2)c2ccc(C(=O)N(CC)CC)cc2)CC1", "note": "[Compound 7, N,N-Diethyl-4-[benzyl(1-propylpiperidin-4-yl)amino]benzamide]", "values": [
      {"measurement": "MAIT % Inhibition @150 μmol/kg", "setting": "[1]", "value": 100, "unit": "%"}
    ]},
    {"smiles": "CCN(CC)C(=O)c1ccc(N(Cc2ccccc2)C2CCN(CCCN(C)C)CC2)cc1", "note": "[Compound 11, N,N-Diethyl-4-[benzyl(1-[3-dimethylaminopropyl]piperidin-4-yl)amino]benzamide]", "values": [
      {"measurement": "Ki", "setting": "δ-opioid receptor", "value": 1.77, "unit": "µM"},
      {"measurement": "Ki", "setting": "μ-opioid receptor", "value": "≥ 10", "unit": "µM"}
    ]},
    {"smiles": "CCCN1CCC(N(Cc2cccc(O)c2)c2ccc(C(=O)N(CC)CC)cc2)CC1", "note": "[Compound 2, N,N-Diethyl-4-[3-hydroxybenzyl(1-propylpiperidin-4-yl)amino]benzamide]", "values": [
      {"measurement": "MAIT % Inhibition @150 μmol/kg", "setting": "[1]", "value": 13.3, "unit": "%"}
    ]},
    {"smiles": "CCCN1CCC(N(Cc2cccc(OC)c2)c2ccc(C(=O)N(CC)CC)cc2)CC1", "note": "[Compound 1, N,N-diethyl-4-[3-methoxybenzyl(1-propylpiperidin-4-yl)amino]benzamide]", "values": [
      {"measurement": "Ki", "setting": "δ-opioid receptor", "value": 0.24, "unit": "µM"},
      {"measurement": "Ki", "setting": "μ-opioid receptor", "value": 9.28, "unit": "µM"}
    ]},
    {"smiles": "CCCN1CCC(N(Cc2ccccc2O)c2ccc(C(=O)N(CC)CC)cc2)CC1", "note": "[Compound 5, N,N-Diethyl-4-[2-hydroxybenzyl(1-propylpiperidin-4-yl)amino]benzamide]", "values": [
      {"measurement": "Ki", "setting": "δ-opioid receptor", "value": 3.47, "unit": "µM"},
      {"measurement": "Ki", "setting": "μ-opioid receptor", "value": "≥ 10", "unit": "µM"}
    ]},
    {"smiles": "CCN(CC)C(=O)c1ccc(N(Cc2ccccc2)C2CCNCC2)cc1", "note": "[Compound 8, N,N-Diethyl-4-[benzyl(piperidin-4-yl)amino]benzamide]", "values": [
      {"measurement": "MAIT % Inhibition @150 μmol/kg", "setting": "[1]", "value": 33.3, "unit": "%"}
    ]}
  ]
}
